The target in test [1] is T1, recombinant human cIAP1-BIR3 protein (Homo sapiens, UniProt Q13490).
T1 construct: recombinant human cIAP1-BIR3 protein; purchased Reaction biology APT-11-370
As to the kind of experiment: Recombinant human c-IAP1-BIR3 biochemical assay (HTRF, peptide displacement). To be noted: 1.2 nM cIAP1-BIR3, 3 nM AbuRPF-K(5-Fam)-NH2 peptide, read-out: Protein binding IC50 (nM) c-IAP1. An outline of the steps:
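1.2 nM cIAP1-BIR3 preincubated 1 h at room temperature with compound (10 points, 4-fold, top 10 uM) in 20 mM HEPES pH 7.5, 50 mM NaCl, 1 mM DTT; 3 nM AbuRPF-K(5-Fam)-NH2 then added for 1 h, then anti-6His Tb cryptate for 1 h. 520/490 nm ratio; IC50 by four-parameter logistic fit.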
(In general: Time-resolved FRET reads energy transfer from a long-lived donor to a nearby acceptor.)

In test [2] the target is T2, recombinant human cIAP2-BIR3 protein (Homo sapiens, UniProt Q13489).
T2 construct: recombinant human cIAP2-BIR3 protein; purchased Reaction biology APT-11-372
T2 sequence (Q13489 238-349 limits assumed): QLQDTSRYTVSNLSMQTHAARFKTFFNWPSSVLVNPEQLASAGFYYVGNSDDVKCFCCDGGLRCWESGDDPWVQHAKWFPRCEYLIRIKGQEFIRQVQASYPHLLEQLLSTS
Kind of test: Recombinant human c-IAP2-BIR3 biochemical assay (HTRF, peptide displacement). Conditions: 3.7 nM cIAP2-BIR3, 3.7 nM AbuRPF-K(5-Fam)-NH2 peptide, read-out: Protein binding IC50 (nM) c-IAP2. The method, boiled down: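 3.7 nM protein pre-incubated 1 h at room temperature with compounds (top 10 uM, 4-fold, 10 points) in 20 mM HEPES pH 7.5, 50 mM NaCl, 0.005% Tween-20, 1 mM DTT. Then 3.7 nM AbuRPF-K(5-Fam)-NH2 for 1 h, then anti-6His Tb cryptate 1 h. IC50 from 520/490 nm HTRF ratio, four-parameter logistic fit.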

Test [3] has as its target T3, recombinant human XIAP-BIR3 protein (Homo sapiens, UniProt P98170).
T3 construct: recombinant human XIAP-BIR3 protein; purchased Reaction biology APT-11-374
As to the kind of experiment: Recombinant human XIAP-BIR3 biochemical assay (HTRF, peptide displacement). Conditions: 3.7 nM XIAP-BIR3, 7.6 nM AbuRPF-K(5-Fam)-NH2 peptide, read-out: Protein binding IC50 (nM) XIAP. The method, boiled down: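 3.7 nM His-tagged XIAP-BIR3 was preincubated 1 h RT with compound (top 10 µM, 4-fold, 10 points) in 20 mM HEPES pH 7.5, 50 mM NaCl, 0.005% Tween-20, 1 mM DTT. 7.6 nM AbuRPF-K(5-Fam)-NH2 peptide was then added, followed by anti-6His Tb cryptate, 1 h each. HTRF 520/490 nm ratio; four-parameter logistic IC50.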

The results in this text go back to patent publication US12583866B2, “Pyrido[2,3-b][1,4]oxazines or tetrahydropyrido[2,3-b][1,4]oxazepines as IAP antagonists” (BEIGENE, LTD., priority 2020, dated 2026).

A word on the IC50: it is the concentration that inhibits the measured activity by half.

T1 sequence (Q13490 253-363 limits assumed): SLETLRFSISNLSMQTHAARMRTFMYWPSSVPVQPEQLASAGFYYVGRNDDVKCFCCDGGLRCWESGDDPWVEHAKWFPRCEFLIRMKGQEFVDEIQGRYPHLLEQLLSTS
T3 sequence (P98170 241-356 limits assumed): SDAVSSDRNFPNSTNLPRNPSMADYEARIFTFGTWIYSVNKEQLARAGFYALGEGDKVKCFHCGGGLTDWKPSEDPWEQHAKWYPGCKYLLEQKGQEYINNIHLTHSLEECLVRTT

For the compound `CCC(=O)Nc1nc2c(cc1Cc1ccc(F)cc1)N(C(=O)CN1C[C@@H](C)NC[C@@H]1CN1[C@H](C)COC[C@H]1C)[C@@H](C)CO2` [Compound 117], the concentration for half-maximal inhibition (IC50) stood at 0.15 nM in test [1], 0.23 nM in test [2] and 6.5 nM in test [3].
In the same order, the values of `C[C@@H]1CN(CC(=O)N2c3cc(Cc4ccc(F)cc4)cnc3OC[C@@H]2C)[C@@H](CN2CCOC[C@H]2C)CN1` [Compound 19A, 1-((S)-7-(4-fluorobenzyl)-2-methyl-2,3-dihydro-1H-pyrido[2,3-b][1,4]oxazin-1-yl)-2-((2R,5R)-5-methyl-2-(((R)-3-methylmorpholino)methyl)piperazin-1-yl)ethan-1-one] are 0.13 nM, 0.25 nM and 2.7 nM.
In the same order, the values of `COC[C@H]1COc2ncc(Cc3ccc(F)cc3)cc2N1C(=O)CN1C[C@@H](C)NC[C@@H]1CN1[C@H](C)COC[C@H]1C` [Compound 34, 2-((2R,5R)-2-(((3R,5R)-3,5-dimethylmorpholino)methyl)-5-methylpiperazin-1-yl)-1-((S)-7-(4-fluorobenzyl)-2-(methoxymethyl)-2,3-dihydro-1H-pyrido[2,3-b][1,4]oxazin-1-yl)ethan-1-one] are 0.25 nM, 0.32 nM and 23 nM.
Turning to `CC1CN(C(=O)CN2C[C@@H](C)NC[C@@H]2CN2CCOC[C@H]2C)c2cc(Cc3ccc(F)cc3)c(Br)nc2O1` (stereo partly drawn) [Compound 11, 1-(6-bromo-7-(4-fluorobenzyl)-3-methyl-2,3-dihydro-1H-pyrido[2,3-b][1,4]oxazin-1-yl)-2-((2R,5R)-5-methyl-2-(((R)-3-methylmorpholino)methyl)piperazin-1-yl)ethan-1-one], the half-inhibitory concentration (IC50) in test [1] was found to be 8 nM; in test [2], 17 nM; in test [3] it was 220 nM.
In the same order, the values of `CCOC[C@H]1COc2ncc(Cc3ccc(F)cc3)cc2N1C(=O)CN1C[C@@H](C)NC[C@@H]1CN1[C@H](C)COC[C@H]1C` [Compound 36] are 0.42 nM, 0.8 nM and 50 nM.
Taken in the same sequence, the figures for `CCOC[C@@H]1COCCN1C[C@H]1CN[C@H](C)CN1CC(=O)N1c2cc(Cc3ccc(F)cc3)c(CO)nc2OC[C@@H]1C` [Compound 53] were 0.46 nM, 1.2 nM and 12 nM.
In the same order, the values of `C[C@@H]1CN(CC(=O)N2c3cc(Cc4ccc(F)cc4)cnc3OC[C@@H]2C2CC2)[C@@H](CN2CCOC[C@H]2C)CN1` [Compound 26, 1-((S)-2-cyclopropyl-7-(4-fluorobenzyl)-2,3-dihydro-1H-pyrido[2,3-b][1,4]oxazin-1-yl)-2-((2R,5R)-5-methyl-2-(((R)-3-methylmorpholino)methyl)piperazin-1-yl)ethan-1-one] are 0.48 nM, 1.13 nM and 16 nM.
As to `C[C@@H]1CN(CC(=O)N2c3cc(Cc4ccc(F)cc4)c(C(N)=O)nc3OC[C@@H]2C)[C@@H](CN2CCOCC23CC3)CN1` [Compound 88, (S)-1-(2-((2R,5R)-2-((7-oxa-4-azaspiro[2.5]octan-4-yl)methyl)-5-methylpiperazin-1-yl)acetyl)-7-(4-fluorobenzyl)-2-methyl-2,3-dihydro-1H-pyrido[2,3-b][1,4]oxazine-6-carboxamide], the half-maximal inhibitory concentration (IC50) in test [1] amounted to 0.35 nM; in test [2] it was 0.63 nM; in test [3] it was 12.4 nM.
Taken in the same sequence, the figures for `C[C@@H]1CN(CC(=O)N2c3cc(Cc4ccc(F)cc4)c(CO)nc3OC[C@@H]2C)[C@@H](CN2C[C@H](C)OC[C@H]2C)CN1` [Compound 49] were 0.3 nM, 0.48 nM and 3.6 nM.
